From BindingDB's records for doi:10.1016/j.bioorg.2016.06.004 (Nirma University, 2016)

Biological target: T1, Seed linoleate 13S-lipoxygenase-1 (Glycine max, UniProt P08170)
T1 sequence (P08170 whole entry): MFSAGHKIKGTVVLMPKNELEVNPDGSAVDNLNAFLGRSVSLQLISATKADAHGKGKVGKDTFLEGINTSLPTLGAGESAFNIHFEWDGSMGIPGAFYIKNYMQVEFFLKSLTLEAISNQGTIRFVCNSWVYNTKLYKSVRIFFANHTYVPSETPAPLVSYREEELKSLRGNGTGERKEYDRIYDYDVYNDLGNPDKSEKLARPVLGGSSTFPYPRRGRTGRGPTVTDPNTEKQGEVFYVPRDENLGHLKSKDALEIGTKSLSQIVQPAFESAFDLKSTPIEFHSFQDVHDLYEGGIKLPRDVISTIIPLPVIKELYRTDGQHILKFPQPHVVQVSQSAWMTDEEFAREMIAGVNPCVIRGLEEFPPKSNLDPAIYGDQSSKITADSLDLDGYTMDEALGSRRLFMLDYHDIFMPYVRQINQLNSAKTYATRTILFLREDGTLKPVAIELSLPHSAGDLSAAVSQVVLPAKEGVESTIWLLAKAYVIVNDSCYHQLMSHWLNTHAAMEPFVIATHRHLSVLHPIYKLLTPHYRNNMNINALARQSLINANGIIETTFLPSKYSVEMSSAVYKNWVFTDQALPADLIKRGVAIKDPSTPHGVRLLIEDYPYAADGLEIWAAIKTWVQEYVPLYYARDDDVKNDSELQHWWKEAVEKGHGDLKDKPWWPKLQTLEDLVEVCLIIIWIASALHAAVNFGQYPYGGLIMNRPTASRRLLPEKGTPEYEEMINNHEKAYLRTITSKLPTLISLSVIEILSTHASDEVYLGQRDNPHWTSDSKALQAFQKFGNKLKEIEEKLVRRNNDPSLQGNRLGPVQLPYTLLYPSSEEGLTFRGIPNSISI
Assay: In-vitro LOX Inhibition Assay
Conditions: pH 9; 25 °C
Method: It is determined by kinetic mode of spectro-photometric determination method,which was performed by recording the rate of change in absorbance at 234 nm. It is based on the principle that the increase of absorbance at 234 nm due to formation of 9- and 13- hydroperoxides by LOX with substrate (linoleic acid). […] Briefly, the stock solution of lipoxygenase was prepared by dissolving 10,000 units/ml of Lipoxidase in 200 mM borate buffer, pH 9, and 5 uL of 80 mmol linoleic acid. Six different concentrations of inhibitors were selected, and made for determining the enzyme inhibition activity. Increasing concentrations of inhibitors were added to enzyme solution and kept for 5 min followed by substrate addition and kept at room temperature with stirring for 20 min.

Structure (SMILES)	IC50
COc1ccc2nc(NCC(O)COc3ccc4c(C)cc(=O)oc4c3)sc2c1 (stereo not given) [7-(2-hydroxy-3-(6-methoxybenzo[d]thiazol-2-ylamino)propoxy)-4-methyl-2H-chromen-2-one (35)]	2.12 nM
Cc1cc(=O)oc2cc(OCC(O)CNc3nc4ccc([N+](=O)[O-])cc4s3)ccc12 (stereo not given) [7-(2-hydroxy-3-(6-nitrobenzo[d]thiazol-2-ylamino)propoxy)-4-methyl-2H-chromen-2-one (31)]	3.24 nM
Cc1cc(=O)oc2cc(OCC(O)CNc3nc4cc(Cl)c(Cl)cc4s3)ccc12 (stereo not given) [7-(3-(5,6-dichlorobenzo[d]thiazol-2-ylamino)-2-hydroxypropoxy)-4-methyl-2H-chromen-2-one (34)]	15.5 nM
Cc1cc(=O)oc2cc(OCC(O)CNc3nc4cc(Cl)c(F)cc4s3)ccc12 (stereo not given) [7-(3-(5-chloro-6-fluorobenzo[d]thiazol-2-ylamino)-2-hydroxypropoxy)-4-methyl-2H-chromen-2-one (32)]	6.16 nM
Cc1cc(=O)oc2cc(OCC(O)CNc3nc4ccc(Cl)cc4s3)ccc12 (stereo not given) [7-(3-(6-chlorobenzo[d]thiazol-2-ylamino)-2-hydroxypropoxy)-4-methyl-2H-chromen-2-one (33)]	2.79 nM
